This passage reports melting point results from patent US7166738B2, “Non-nucleoside reverse transcriptase inhibitors” (Roche Palo Alto LLC, priority 2004, dated 2007).

Structures are written as SMILES.

Usually melting point stands for the temperature of the solid-liquid transition. Consider `Cc1cc(S(=O)(=O)CCCO)ccc1NC(=O)Cc1ccc(C)c(Oc2cc(Cl)cc(C#N)c2)c1` [Compound I-157, 2-[3-(3-Chloro-5-cyano-phenoxy)-4-methyl-phenyl]-N-[4-(3-hydroxy-propane-1-sulfonyl)-2-methyl-phenyl]-acetamide], for which the melting point fell in the range of 78.9 to 79.5 °C. The value for `CNS(=O)(=O)c1ccc(NC(=O)Cc2ccc(Cl)c(Oc3cc(Cl)cc(C#N)c3)c2F)c(Cl)c1` [Compound I-168, 2-[4-Chloro-3-(3-chloro-5-cyano-phenoxy)-2-fluoro-phenyl]-N-(2-chloro-4-methylsulfamoyl-phenyl)-acetamide] was 199.1 to 200 °C; that for `Cc1cc(CC(=O)Nc2ccc(S(N)(=O)=O)cc2)cc(Oc2cc(C#N)ccc2Cl)c1` [Compound I-146, 2-[3-(2-Chloro-5-cyano-phenoxy)-5-methyl-phenyl]-N-(4-sulfamoyl-phenyl)-acetamide] was 235.9 to 236.7 °C.

Take `CCc1ccc(CC(=O)Nc2ccc(S(N)(=O)=O)cc2)cc1Oc1cc(Cl)cc(C#N)c1` [Compound I-45, 2-[3-(3-Chloro-5-cyano-phenoxy)-4-ethyl-phenyl]-N-(4-sulfamoyl-phenyl)-acetamide]: the melting point was in the range of 170.7 to 172.4 °C. The value for `Cc1cc(OCC[C@@H](O)CO)ccc1NC(=O)Cc1ccc(C)c(Oc2cc(Cl)cc(C#N)c2)c1` [Compound I-151, 2-[3-(3-Chloro-5-cyano-phenoxy)-4-methyl-phenyl]-N-[4-((R)-3,4-dihydroxy-butoxy)-2-methyl-phenyl]-acetamide] was 104.9 to 106.4 °C.

`CCc1ccc(CC(=O)Nc2ccc(S(N)(=O)=O)cc2C)cc1Oc1cc(Cl)cc(Br)c1Cl` [Compound I-36, 2-[3-(3-Bromo-2,5-dichloro-phenoxy)-4-ethyl-phenyl]-N-(2-methyl-4-sulfamoyl-phenyl)-acetamide] yielded a melting point of 213.2 to 219.6 °C.

In turn, `CCCCC(=O)NS(=O)(=O)c1ccc(NC(=O)Cc2ccc(Cl)c(Oc3cc(Cl)cc(C#N)c3)c2F)c(Cl)c1.[Na]` displayed a melting point of 157.6 to 159.2 °C. Next, `COc1ccc(CC(=O)Nc2ccccc2Cl)cc1Oc1cc(Cl)cc(C#N)c1` [Compound I-61, 2-[3-(3-Chloro-5-cyano-phenoxy)-4-methoxy-phenyl]-N-(2-chloro-phenyl)-acetamide]: 175.7 to 178.3 °C; `CCc1ccc(CC(=O)Nc2ccc(S(N)(=O)=O)cc2Cl)cc1Oc1cc(C#N)cc(C#N)c1Cl` [Compound I-54, 2-[3-(2-Chloro-3,5-dicyano-phenoxy)-4-ethyl-phenyl]-N-(2-chloro-4-sulfamoyl-phenyl)-acetamide]: 180.3 to 183.1 °C. The value for `CCc1ccc(CC(=O)Nc2ccccc2Cl)cc1Oc1cc(C#N)cc(F)c1Cl` [Compound I-59, 2-[3-(2-Chloro-5-cyano-3-fluoro-phenoxy)-4-ethyl-phenyl]-N-(2-chloro-phenyl)-acetamide] was 142.1 to 142.8 °C; that for `Cc1cc(CC(=O)Nc2ccc(S(N)(=O)=O)cc2Cl)cc(Oc2cc(C#N)ccc2Cl)c1` [Compound I-148, 2-[3-(2-Chloro-5-cyano-phenoxy)-5-methyl-phenyl]-N-(2-chloro-4-sulfamoyl-phenyl)-acetamide] was 212.9 to 214.4 °C. The value for `CSCCCNS(=O)(=O)c1ccc(NC(=O)Cc2ccc(C)c(Oc3cc(Cl)cc(C#N)c3)c2)c(C)c1` [Compound I-131, 2-[3-(3-Chloro-5-cyano-phenoxy)-4-methyl-phenyl]-N-[2-methyl-4-(3-methylsulfanyl-propylsulfamoyl)-phenyl]-acetamide] was 159.9 to 162.8 °C; that for `CCc1ccc(CC(=O)Nc2ccc(S(N)(=O)=O)cc2)cc1Oc1cc(C#N)cc(C#N)c1Cl` [Compound I-52, 2-[3-(2-Chloro-3,5-dicyano-phenoxy)-4-ethyl-phenyl]-N-(4-sulfamoyl-phenyl)-acetamide] was 119.7 to 123.3 °C. Molecule `N#Cc1cc(C#N)cc(Oc2cc(CC(=O)Nc3ccc(S(N)(=O)=O)cc3)ccc2Cl)c1` [Compound I-2, 2-[4-Chloro-3-(3,5-dicyano-phenoxy)-phenyl]-N-(4-sulfamoyl-phenyl)-acetamide] gave a melting point of 218 to 219 °C. Consider `CC(C)CC(=O)NS(=O)(=O)c1ccc(NC(=O)Cc2ccc(Cl)c(Oc3cc(Cl)cc(C#N)c3)c2F)c(Cl)c1.[Na]`, for which the melting point was 159.3 to 163.4 °C. In turn, `Cc1cc(S(=O)(=O)NCC(C)O)ccc1NC(=O)Cc1ccc(C)c(Oc2cc(Cl)cc(C#N)c2)c1` (centres unmarked) [Compound I-129, 2-[3-(3-Chloro-5-cyano-phenoxy)-4-methyl-phenyl]-N-[4-(2-hydroxy-propylsulfamoyl)-2-methyl-phenyl]-acetamide] displayed a melting point of 172.2 to 173.4 °C. `CCC(=O)NS(=O)(=O)c1ccc(NC(=O)Cc2ccc(C)c(Oc3cc(Cl)cc(C#N)c3)c2F)c(Cl)c1.[Na]` showed a melting point of 158.8 to 162 °C. The value for `CN(C(=O)Cc1ccc(Cl)c(Oc2cc(Cl)cc(C#N)c2)c1F)c1ccccc1Cl` [Compound I-111, 2-[4-Chloro-3-(3-chloro-5-cyano-phenoxy)-2-fluoro-phenyl]-N-(2-chloro-phenyl)-N-methyl-acetamide] was 134 to 137.1 °C; that for `Cc1cc(C#N)cc(C)c1Oc1cc(CC(=O)Nc2ccccc2Cl)ccc1Cl` [Compound I-68, 2-[4-Chloro-3-(4-cyano-2,6-dimethyl-phenoxy)-phenyl]-N-(2-chloro-phenyl)-acetamide] was 183.9 to 185.1 °C; that for `Cc1cc(CC(=O)Nc2ccc(S(N)(=O)=O)cc2C)cc(Oc2cc(C#N)ccc2Cl)c1` [Compound I-147, 2-[3-(2-Chloro-5-cyano-phenoxy)-5-methyl-phenyl]-N-(2-methyl-4-sulfamoyl-phenyl)-acetamide] was 200.3 to 201.1 °C. Next, `CCc1cc(CC(=O)Nc2ccc(S(N)(=O)=O)cc2Cl)cc(Oc2cc(C#N)ccc2Cl)c1` [Compound I-107, 2-[3-(2-Chloro-5-cyano-phenoxy)-5-ethyl-phenyl]-N-(2-chloro-4-sulfamoyl-phenyl)-acetamide]: 204 to 207 °C; `CCc1ccc(CC(=O)Nc2ccccc2Cl)cc1Oc1cc(Br)cc(Br)c1Cl` [Compound I-38, N-(2-Chloro-phenyl)-2-[3-(3,5-dibromo-2-chloro-phenoxy)-4-ethyl-phenyl]-acetamide]: 155.5 to 155.8 °C; `COc1ccc(CC(=O)Nc2ccc(S(N)(=O)=O)cc2Cl)cc1Oc1cc(C#N)cc(C(F)F)c1` [Compound I-94, N-(2-Chloro-4-sulfamoyl-phenyl)-2-[3-(3-cyano-5-difluoromethyl-phenoxy)-4-methoxy-phenyl]-acetamide]: 185 to 187.9 °C. Next, `Cc1ccc(CC(=O)Nc2ccccc2Cl)c(F)c1Oc1cc(C#N)cc(C(F)F)c1` [Compound I-86, N-(2-Chloro-phenyl)-2-[3-(3-cyano-5-difluoromethyl-phenoxy)-2-fluoro-4-methyl-phenyl]-acetamide]: 163.3 to 164.4 °C. Regarding `Cc1cc(S(N)(=O)=O)ccc1NC(=O)Cc1ccc(Cl)c(Oc2cc(C#N)cc(C#N)c2)c1F` [Compound I-32, 2-[4-Chloro-3-(3,5-dicyano-phenoxy)-2-fluoro-phenyl]-N-(2-methyl-4-sulfamoyl-phenyl)-acetamide], the melting point lay in the range of 248.4 to 250.8 °C. Next, `COc1cc(CC(=O)Nc2ccc(S(N)(=O)=O)cc2C)cc(Oc2cc(Cl)cc(C#N)c2)c1` [Compound I-133, 2-[3-(3-Chloro-5-cyano-phenoxy)-5-methoxy-phenyl]-N-(2-methyl-4-sulfamoyl-phenyl)-acetamide]: 169.9 to 171.1 °C. Next, `N#Cc1cc(Oc2cc(CC(=O)Nc3ccc(S(N)(=O)=O)cc3Cl)ccc2Cl)cc(C(F)(F)F)c1` [Compound I-90, 2-[4-Chloro-3-(3-cyano-5-trifluoromethyl-phenoxy)-phenyl]-N-(2-chloro-4-sulfamoyl-phenyl)-acetamide]: 198 to 202 °C. Next, `Cc1cc(S(N)(=O)=O)ccc1NC(=O)Cc1ccc(Cl)c(Oc2cc(C#N)cc(C(F)(F)F)c2)c1` [Compound I-89, 2-[4-Chloro-3-(3-cyano-5-trifluoromethyl-phenoxy)-phenyl]-N-(2-methyl-4-sulfamoyl-phenyl)-acetamide]: 211.6 to 214.6 °C; `Cc1ccc(CC(=O)Nc2ccc(S(N)(=O)=O)cc2)cc1Oc1cc(Cl)ccc1Br` [Compound I-30, 2-[3-(2-Bromo-5-chloro-phenoxy)-4-methyl-phenyl]-N-(4-sulfamoyl-phenyl)-acetamide]: 236.9 to 239.3 °C. For the molecule `CCc1ccc(CC(=O)Nc2ccc(S(N)(=O)=O)cc2)cc1Oc1cc(Cl)ccc1Br` [Compound I-15, 2-[3-(2-Bromo-5-chloro-phenoxy)-4-ethyl-phenyl]-N-(4-sulfamoyl-phenyl)-acetamide], the melting point is 193.7 to 195.9 °C. The value for `Cc1cc(CC(=O)Nc2ccc(S(N)(=O)=O)cc2Cl)cc(Oc2cc(Cl)cc(C#N)c2)c1` [Compound I-143, 2-[3-(3-Chloro-5-cyano-phenoxy)-5-methyl-phenyl]-N-(2-chloro-4-sulfamoyl-phenyl)-acetamide] was 194.1 to 195.9 °C; that for `CCc1ccc(CC(=O)Nc2ccccc2Cl)cc1Oc1cc(Cl)cc(Br)c1Cl` [Compound I-37, 2-[3-(3-Bromo-2,5-dichloro-phenoxy)-4-ethyl-phenyl]-N-(2-chloro-phenyl)-acetamide] was 146.5 to 147.6 °C; that for `N#Cc1cc(Oc2c(Cl)ccc(CC(=O)Nc3ccc(S(N)(=O)=O)cc3)c2F)cc(C(F)F)c1` [Compound I-13, 2-[4-Chloro-3-(3-cyano-5-difluoromethyl-phenoxy)-2-fluoro-phenyl]-N-(4-sulfamoyl-phenyl)-acetamide] was 214 to 218 °C.

`CCc1ccc(CC(=O)Nc2ccccc2Cl)cc1Oc1cc(Cl)cc(Br)c1` [Compound I-24, 2-[3-(3-Bromo-5-chloro-phenoxy)-4-ethyl-phenyl]-N-(2-chloro-phenyl)-acetamide] came in with a melting point of 119.9 to 122.2 °C. Next, `N#Cc1cc(Cl)cc(Oc2c(Cl)ccc(CC(=O)Nc3ccc(S(N)(=O)=O)cc3Cl)c2F)c1` [Compound I-100, 2-[4-Chloro-3-(3-chloro-5-cyano-phenoxy)-2-fluoro-phenyl]-N-(2-chloro-4-sulfamoyl-phenyl)-acetamide]: 234.4 to 234.9 °C.
